Source: patent publication US10376520B2, “Methods for the treatment of cardiovascular disorders” (Galapagos NV, priority 2015, dated 2019)

Tests used:
Format in all cases: in vivo, human
RA patients [1] = assay: Plasma ApoC-II concentration (ELISA), Study 4; details: 4 weeks change from baseline
Procedure: (§1) Randomized double-blind, placebo-controlled add on study in subjects with active RA who have an inadequate response to MTX monotherapy, in combination with methotrexate, administered for 4 weeks in the treatment of subjects with active rheumatoid arthritis who have an inadequate response to methotrexate alone.
(§2) Compound 1 (dosed as a [Compound 1:HCl:3H2O]) capsules administered orally in 30 mg, 75 mg, 150 mg, or 300 mg doses per day for 4 weeks.
Plasma ApoC-II and ApoC-III concentrations are determined using commercial available ELISA kits from Abnova (9th Floor, No. 108, Jhouzih St., Neihu District. Taipei City, 114, Taiwan) according to manufacturer's instruction. apoC2: catalogue number KA0464, lot number used: 08871403. apoC3: catalogue number KA0465, lot number used: 02961525.

RA patients [2] = assay: LDL determination, Study 4 (RA patients, 4 weeks, add-on to MTX); details: for [LDL] levels: Study 4
Source text: Randomized, double-blind, placebo-controlled, multicenter, phase II study of Compound 1 (dosed as a [Compound 1:HCl:3H2O]) to compare four dose regimens versus placebo, in combination with methotrexate, administered for 4 weeks in the treatment of subjects with active rheumatoid arthritis who have an inadequate response to methotrexate alone.
as §1
90 subjects randomized to one of 4 dose regimens of Compound 1 (dosed as a [Compound 1:HCl:3H2O]) or placebo, on top of their stable dose of MTX. Thus, each of the 4 different doses of Compound 1 (dosed as a [Compound 1:HCl:3H2O]) and placebo groups has 18 subjects.
as §2
The determination of [LDL]-cholesterol is made using an automated method taking advantage of the selective micellary solubilization of [LDL]-cholesterol by a nonionic detergent and the interaction of a sugar compound and lipoproteins (VLDL and chylomicrons).
When a detergent is included in the enzymatic method for cholesterol determination (cholesterol esterase, cholesterol oxidase coupling reaction), the relative reactivities of cholesterol in the lipoprotein fractions increase in this order: [HDL]<chylomicrons <VLDL <[LDL]. In the presence of Mg^2+, a sugar compound markedly reduces the enzymatic reaction of the cholesterol measurement in VLDL and chylomicrons. The combination of a sugar compound with detergent enables the selective determination of [LDL]-cholesterol in serum. (Friedewald et al., 1972; Rifai et al., 1992)
Homogeneous enzymatic colorimetric assay.
In the presence of peroxidase, the hydrogen peroxide generated reacts with 4-aminoantipyrine and Sodium N-(2-hydroxy-3-sulfopropyl)-3,5-dimethoxyaniline (HSDA) to form a purple-blue dye.
The color intensity of this dye is directly proportional to the cholesterol concentration and is measured photometrically.
Human serum and plasma samples [LDL] determination was done on a Roche/Hitachi Cobas c 701/702 system which automatically calculate the analyte concentration of each sample. Samples containing precipitates are centrifuged before performing the assay.

RA patients [3] = assay: ApoB level (Selectra autoanalyzer), Study 4; details: for ApoB level, 4 weeks CFB: 4 weeks change from baseline
Procedure: as §1, §2
ApoAI, and ApoB were measured on the Selectra autoanalyzer (Sopachem BV, 44-RI Straat 33, 4051 AP Ochten, The Netherlands). All assays were commercially available from DiaSys Diagnostic Systems GmbH, Alte Strasse 9, 65558 Holzheim, Germany.

RA patients [4] = assay: [HDL] cholesterol level (Selectra autoanalyzer), Study 4; details: for HDL level, 4 weeks CFB: 4 weeks change from baseline
Procedure: as §1, §2
Triglycerides, [HDL] cholesterol, and plasma cholesterol were measured on the Selectra autoanalyzer (Sopachem BV, 44-RI Straat 33, 4051 AP Ochten, The Netherlands). All assays were commercially available from DiaSys Diagnostic Systems GmbH, Alte Strasse 9, 65558 Holzheim, Germany.

## O=C(Nc1nc2cccc(-c3ccc(CN4CCS(=O)(=O)CC4)cc3)n2n1)C1CC1 [Compound 1, cyclopropanecarboxylic acid {5-[4-(1,1-dioxo-thiomorpholin-4-ylmethyl)-phenyl]-[1,2,4]triazolo[1,5-a]pyridin-2yl}-amide]
RA patients [1]; 30 mg q.d.
  ApoC-II level, 4 weeks CFB: 11.2%
RA patients [1]; 75 mg q.d.
  ApoC-II level, 4 weeks CFB: 23.3%
RA patients [1]; 150 mg q.d.
  ApoC-II level, 4 weeks CFB: 8.6%
RA patients [1]; 300 mg q.d.
  ApoC-II level, 4 weeks CFB: 37.0%
RA patients [2]; 30 mg qd
  [LDL] % Mean % variation vs baseline after 4 weeks: 7%
RA patients [2]; 75 mg qd
  [LDL] % Mean % variation vs baseline after 4 weeks: 7%
RA patients [2]; 150 mg qd
  [LDL] % Mean % variation vs baseline after 4 weeks: 1%
RA patients [2]; 300 mg qd
  [LDL] % Mean % variation vs baseline after 4 weeks: 13%
RA patients [2]; 30 mg q.d., baseline
  [LDL] levels: 3.34 mmol/L
RA patients [2]; 30 mg q.d., week 1
  [LDL] levels: 3.40 mmol/L
RA patients [2]; 30 mg q.d., week 2
  [LDL] levels: 3.35 mmol/L
RA patients [2]; 30 mg q.d., week 3
  [LDL] levels: 3.41 mmol/L
RA patients [2]; 30 mg q.d., week 4
  [LDL] levels: 3.60 mmol/L
RA patients [2]; 75 mg q.d., baseline
  [LDL] levels: 3.22 mmol/L
RA patients [2]; 75 mg q.d., week 1
  [LDL] levels: 3.25 mmol/L
RA patients [2]; 75 mg q.d., week 2
  [LDL] levels: 3.17 mmol/L
RA patients [2]; 75 mg q.d., week 3
  [LDL] levels: 3.14 mmol/L
RA patients [2]; 75 mg q.d., week 4
  [LDL] levels: 3.36 mmol/L
RA patients [2]; 150 mg q.d., baseline
  [LDL] levels: 3.01 mmol/L
RA patients [2]; 150 mg q.d., week 1
  [LDL] levels: 3.18 mmol/L
RA patients [2]; 150 mg q.d., week 2
  [LDL] levels: 2.95 mmol/L
RA patients [2]; 150 mg q.d., week 3
  [LDL] levels: 2.96 mmol/L
RA patients [2]; 150 mg q.d., week 4
  [LDL] levels: 3.06 mmol/L
RA patients [2]; 300 mg q.d., baseline
  [LDL] levels: 2.82 mmol/L
RA patients [2]; 300 mg q.d., week 1
  [LDL] levels: 3.19 mmol/L
RA patients [2]; 300 mg q.d., week 2
  [LDL] levels: 3.11 mmol/L
RA patients [2]; 300 mg q.d., week 3
  [LDL] levels: 3.18 mmol/L
RA patients [2]; 300 mg q.d., week 4
  [LDL] levels: 3.18 mmol/L
RA patients [3]; 30 mg q.d.
  ApoB level, 4 weeks CFB: 19.5%
  ApoB level, Baseline: 98.8 mg/dL
  ApoB level, week 4: 111 mg/dL
RA patients [3]; 75 mg q.d.
  ApoB level, 4 weeks CFB: −1.1%
  ApoB level, Baseline: 98.5 mg/dL
  ApoB level, week 4: 94.7 mg/dL
RA patients [3]; 150 mg q.d.
  ApoB level, 4 weeks CFB: −1.8%
  ApoB level, Baseline: 93.8 mg/dL
  ApoB level, week 4: 90.7 mg/dL
RA patients [3]; 300 mg q.d.
  ApoB level, 4 weeks CFB: 6.8%
  ApoB level, Baseline: 89.4 mg/dL
  ApoB level, week 4: 95.6 mg/dL
RA patients [4]; 30 mg q.d.
  HDL level, 4 weeks CFB: 6.7%
  HDL level, Baseline: 0.9 mM
  HDL level, week 4: 1 mM
RA patients [4]; 75 mg q.d.
  HDL level, 4 weeks CFB: 13.7%
  HDL level, Baseline: 1 mM
  HDL level, week 4: 1.1 mM
RA patients [4]; 150 mg q.d.
  HDL level, 4 weeks CFB: 10.7%
  HDL level, Baseline: 1 mM
  HDL level, week 4: 1.1 mM
RA patients [4]; 300 mg q.d.
  HDL level, 4 weeks CFB: 46.0%
  HDL level, Baseline: 1 mM
  HDL level, week 4: 1.4 mM
